Data on 23 molecules can be found in US20070191420A1, “Kinase inhibitors” (Devgen NV, priority 2004, published 2007).

Counter-ions that a name gives are not always drawn.

What all share (assay): Fluorescence polarization (FP) PKC inhibition assay, Protein Kinase C Assay Kit, Red (Invitrogen)
Holding throughout (type): biochemical

One assay has as its target T1, PKC epsilon (Homo sapiens, UniProt Q02156).
T1 construct: purchased Invitrogen 6906
T1 sequence (Q02156 1-737): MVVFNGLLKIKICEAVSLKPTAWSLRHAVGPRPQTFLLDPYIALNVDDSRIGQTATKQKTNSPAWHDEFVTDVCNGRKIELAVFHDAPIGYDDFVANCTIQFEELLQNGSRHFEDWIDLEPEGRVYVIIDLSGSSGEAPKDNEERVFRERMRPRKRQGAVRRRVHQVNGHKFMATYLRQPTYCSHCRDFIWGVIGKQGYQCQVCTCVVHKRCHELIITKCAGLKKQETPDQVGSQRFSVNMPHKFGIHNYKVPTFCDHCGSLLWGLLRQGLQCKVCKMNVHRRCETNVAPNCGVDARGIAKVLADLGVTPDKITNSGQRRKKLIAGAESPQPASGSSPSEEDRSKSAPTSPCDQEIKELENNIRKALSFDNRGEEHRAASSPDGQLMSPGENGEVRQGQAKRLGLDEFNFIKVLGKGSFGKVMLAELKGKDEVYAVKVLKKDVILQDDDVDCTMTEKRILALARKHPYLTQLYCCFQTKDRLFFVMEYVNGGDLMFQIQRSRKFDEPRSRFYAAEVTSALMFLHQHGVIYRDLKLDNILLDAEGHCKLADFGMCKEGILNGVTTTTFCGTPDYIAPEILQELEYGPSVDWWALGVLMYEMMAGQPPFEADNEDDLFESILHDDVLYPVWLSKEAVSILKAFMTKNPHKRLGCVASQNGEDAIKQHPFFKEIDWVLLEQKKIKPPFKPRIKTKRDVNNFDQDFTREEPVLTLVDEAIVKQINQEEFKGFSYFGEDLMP
The conditions noted are these: enzyme 10 ng/ml, ATP 2.5 μM, substrate […] 1 μM. Here is the method: (§1) The substrate used was […]
(§2) To perform the assay, 2 μl of a solution of the compound to be tested in DMSO (at each concentration) was added to 6 μl of a solution of the enzyme in 10 mM HEPES, 5 mM dithiotreitol, 0.1% Triton X-100, pH 7,4.
(§3) After incubating for 30 minutes at room temperature, 4 μl of a mixture of ATP and the protein substrate in 60 mM HEPES (pH7.4), 15 mM MgCl2, 0.3 mM CaCl2, 0.06% NP40 was added.
(§4) After incubating for 80 minutes at room temperature, 3 μl of a mix solution of 500 mM EDTA (stop solution) and the Rhodamine-based PKC Red Tracer (from the Protein Kinase C Assay Kit) in BGG/phosphate buffer (pH7.4) with 0.02% NaN3 and 0.1% Triton X-100 was added and 5 μl of a the Anti-Phosphoserine antibody (also from the Protein Kinase C Assay Kit) in BGG/phosphate buffer (pH7.4) with 0.02% NaN3.
(§5) The results were fitted to a curve using the XL-Fit algorithm and IC50 values were calculated for each fitted curve, again using the XL-Fit algorithm.

A further assay addresses T2, PKC gamma (Homo sapiens, UniProt P05129).
T2 construct: purchased Invitrogen 9343
The conditions noted are these: enzyme 20 ng/ml, ATP 2.5 μM, substrate […] 1 μM. Here is the method:
as §1, §2, §3, §4, §5

In the next assay the target is T3, PKC theta (Homo sapiens, UniProt Q04759).
T3 construct: purchased Invitrogen 7101
T3 sequence (Q04759 whole entry): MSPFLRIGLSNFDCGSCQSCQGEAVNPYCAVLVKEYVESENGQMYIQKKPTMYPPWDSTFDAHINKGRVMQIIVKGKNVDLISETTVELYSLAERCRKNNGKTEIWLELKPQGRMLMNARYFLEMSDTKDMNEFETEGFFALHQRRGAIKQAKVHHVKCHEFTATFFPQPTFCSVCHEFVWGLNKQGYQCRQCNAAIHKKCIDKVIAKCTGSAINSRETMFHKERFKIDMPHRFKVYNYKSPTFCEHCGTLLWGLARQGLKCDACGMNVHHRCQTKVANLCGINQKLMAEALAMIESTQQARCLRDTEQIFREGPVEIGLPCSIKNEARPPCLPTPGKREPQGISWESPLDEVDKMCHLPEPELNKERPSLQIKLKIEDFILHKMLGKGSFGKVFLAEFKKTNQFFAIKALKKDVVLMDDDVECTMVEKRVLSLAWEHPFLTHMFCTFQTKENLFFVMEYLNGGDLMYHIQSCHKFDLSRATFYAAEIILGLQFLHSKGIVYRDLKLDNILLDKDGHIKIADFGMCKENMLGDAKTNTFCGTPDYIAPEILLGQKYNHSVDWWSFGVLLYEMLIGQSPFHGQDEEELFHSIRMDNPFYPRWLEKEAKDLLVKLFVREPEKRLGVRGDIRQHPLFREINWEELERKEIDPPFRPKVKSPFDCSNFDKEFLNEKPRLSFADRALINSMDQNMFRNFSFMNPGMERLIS
To be noted: enzyme 20 ng/ml, ATP 2.5 μM, substrate […] 1 μM. Here is the method: as §1, §2, §3, §4, §5

The target of a further assay is T4, PKC zeta (Homo sapiens, UniProt Q05513).
T4 construct: purchased Invitrogen 9232
T4 sequence (Q05513 1-592): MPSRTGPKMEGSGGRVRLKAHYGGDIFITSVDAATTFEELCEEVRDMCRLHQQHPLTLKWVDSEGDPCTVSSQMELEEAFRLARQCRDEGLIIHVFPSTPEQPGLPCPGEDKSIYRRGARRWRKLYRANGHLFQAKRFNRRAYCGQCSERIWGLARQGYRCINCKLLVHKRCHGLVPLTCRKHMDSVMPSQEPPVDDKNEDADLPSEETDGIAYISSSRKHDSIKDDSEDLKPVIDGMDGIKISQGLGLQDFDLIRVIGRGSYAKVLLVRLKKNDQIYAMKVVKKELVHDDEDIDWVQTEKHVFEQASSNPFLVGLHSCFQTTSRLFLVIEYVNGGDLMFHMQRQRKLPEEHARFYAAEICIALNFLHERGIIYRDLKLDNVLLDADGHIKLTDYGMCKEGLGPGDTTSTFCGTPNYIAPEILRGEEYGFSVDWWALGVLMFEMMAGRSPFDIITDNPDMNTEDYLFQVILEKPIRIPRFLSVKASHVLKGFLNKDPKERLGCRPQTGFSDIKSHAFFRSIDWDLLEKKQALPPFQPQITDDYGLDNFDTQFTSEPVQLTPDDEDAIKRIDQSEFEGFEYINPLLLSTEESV
To be noted: enzyme 20 ng/ml, ATP 2.5 μM, substrate […] 1 μM. Here is the method: as §2, §3, §4, §5

On to `CCC(N)c1ccc(C(=O)Nc2ccncc2)cc1` (stereo not shown) [Compound 24, 4-(1-amino-propyl)-N-pyridin-4-yl-benzamide dihydrochloric acid salt], for which the half-inhibitory concentration (IC50) against PKC epsilon is 0.65 µM; on PKC gamma, > 30 µM; against PKC theta, 2.91 µM; on PKC zeta, 25.4 µM.

Consider `NC(c1ccc(C(=O)Nc2ccncc2)cc1)C1CCCCC1` (stereo not shown) [Compound 28], for which the half-inhibitory concentration (IC50) on PKC epsilon is 2.6 µM; at PKC gamma it was > 100 µM; against PKC theta, 7.7 µM; on PKC zeta it was > 100 µM.

As for `NC[C@H]1CC[C@H](C(=O)Nc2ccc(F)cc2)CC1` [Compound 4, Trans-4-aminomethyl-cyclohexanecarboxylic acid (4-fluoro-phenyl)-amide hydrochloric acid salt], the IC50 against PKC epsilon, on PKC gamma, on PKC theta and on PKC zeta was > 100 µM throughout.

For `NC(c1ccc(C(=O)Nc2ccncc2)cc1)C1CCCC1` (stereo not shown) [Compound 27], the IC50 turned out to be 0.94 µM on PKC epsilon, 76 µM against PKC gamma, 1.7 µM at PKC theta and 70 µM against PKC zeta.

For the molecule `CC(c1ccc(C(=O)Nc2ccncc2)cc1)N(C)C` (stereo not shown) [Compound 17], the half-maximal inhibitory concentration (IC50) on PKC epsilon, at PKC gamma, against PKC theta and against PKC zeta was > 100 µM throughout.

With `NC1CCCc2cc(C(=O)Nc3ccncc3)ccc21` (stereo not shown) [Compound 29], the half-maximal inhibitory concentration (IC50) was 6.1 µM against PKC epsilon, > 100 µM at PKC gamma, 13.7 µM against PKC theta and > 100 µM against PKC zeta.

Consider `NC(c1ccc(F)cc1)c1ccc(C(=O)Nc2ccncc2)cc1` (stereo not shown) [Compound 36, 4-[1-amino-(4-fluorophenyl)-methyl]-N-pyridin-4-yl-benzamide dihydrochloric acid salt], for which the IC50 against PKC epsilon was 9.5 µM; against PKC gamma it was > 100 µM; against PKC theta it was 28.9 µM; at PKC zeta, > 100 µM.

Regarding `O=C(Nc1ccnc2[nH]ccc12)c1ccc(C2CCCCN2)cc1` (stereo not shown) [Compound 44, 4-piperidin-2-yl-N-(1H-pyrrolo[2,3pyridinedin-4-yl)-benzamidedihydrobromic acid salt], the half-maximal inhibitory concentration (IC50) is 1.6 µM at PKC epsilon, 30.7 µM at PKC gamma, 2.2 µM on PKC theta and > 100 µM against PKC zeta.

As for `NCc1ccc(-c2nc3ccncc3[nH]2)cc1` [Compound 14, 4-(3H-imidazo[4,5-c]pyridine-2-yl)-benzylamine], the IC50 on PKC epsilon, against PKC gamma, at PKC theta and at PKC zeta was > 100 µM throughout.

Regarding `CC(N)c1ccc(C(=O)Nc2ccnc3[nH]ccc23)cc1` (stereo not shown) [Compound 41, 4-(1-amino-ethyl)-N-(1H-pyrrolo[2,3pyridinedin-4-yl)-benzamidedihydrochloric acid salt], the IC50 is 0.4 µM on PKC epsilon, 11.3 µM against PKC gamma, 0.77 µM on PKC theta and > 100 µM at PKC zeta.

Take `CC(N)c1ccc(C(=O)Nc2ccncc2)c2ccccc12` (stereo not shown) [Compound 38, 4-(1-amino-ethyl)-naphthalene-1-carboxylic acid pyridinedin-4-ylamide dihydrochloric acid salt]: the half-maximal inhibitory concentration (IC50) is 2.5 µM on PKC epsilon, > 100 µM against PKC gamma, 7.8 µM on PKC theta and 6.4 µM at PKC zeta.

Regarding `N/C(=N\O)c1ccc(C(=O)Nc2ccncc2)cc1` [Compound 12, 4-(N-pyridin-4-yl)-benzamide oxime], the half-inhibitory concentration (IC50) at PKC epsilon, at PKC gamma, on PKC theta and at PKC zeta was > 100 µM throughout.

As to `NC[C@H]1CC[C@H](C(=O)Nc2cccnc2)CC1` [Compound 6, Trans-4-aminomethyl-cyclohexanecarboxylic acid pyridin-3-ylamide], the IC50 against PKC epsilon, at PKC gamma, on PKC theta and at PKC zeta was > 100 µM throughout.

For `O=C(Nc1ccncc1)c1ccc(C2=NCCCN2)cc1` [Compound 34, N-pyridin-4-yl-4-(1,4,5,6-tetrahydro-1H-pyrimidin-2-yl)-benzamide], the half-inhibitory concentration (IC50) is 19.5 µM on PKC epsilon, > 100 µM on PKC gamma, 75 µM on PKC theta and > 100 µM on PKC zeta.

In the case of `CC(O)c1ccc(C(=O)Nc2ccncc2)cc1` (stereo not shown) [Compound 8, 4-(1-hydroxy-ethyl)-N-pyridin-4-yl-benzamide], the IC50 against PKC epsilon, against PKC gamma, at PKC theta and against PKC zeta was > 100 µM throughout.

Take `NCc1cccc(C(=O)Nc2ccncc2)c1` [Compound 9, 3-aminomethyl-N-pyridin-4-yl-benzamide dihydrochloric acid salt]: the IC50 against PKC epsilon, at PKC gamma, on PKC theta and against PKC zeta was > 100 µM in each case.

Take `O=C(Nc1ccncc1)c1ccc(C2CCCN2)cc1` (stereo not shown) [Compound 30, N-pyridin-4-yl-4-pyrrolidin-2-yl-benzamide dihydrochloric acid salt]: the half-inhibitory concentration (IC50) against PKC epsilon was 9.8 µM; against PKC gamma, > 100 µM; at PKC theta, 17.2 µM; against PKC zeta, > 100 µM.

Regarding `NCc1ccc(C(=O)Nc2ccncn2)cc1` [Compound 21, 4-aminomethyl-N-pyrimidin-4-yl-benzamide dihydrochloric acid salt], the IC50 was 34.4 µM on PKC epsilon, > 100 µM at PKC gamma, 87.2 µM against PKC theta and > 100 µM against PKC zeta.

With `O=C(Nc1ccncc1)c1ccc(C2CCCCN2)cc1` (stereo not shown) [Compound 31, 4-piperidin-2-yl-N-pyridin-4-yl-benzamide dihydrochloric acid salt], the IC50 against PKC epsilon was 3.7 µM; against PKC gamma it was > 100 µM; against PKC theta, 8.04 µM; against PKC zeta, > 100 µM.

Regarding `O=C(Nc1ccncc1)c1ccc(C2=NCCN2)cc1` [Compound 33, 4-(4,5-dihydro-1H-imidazol-2-yl)-N-pyridin-4-yl-benzamide], the IC50 against PKC epsilon is 62 µM; at PKC gamma it was > 100 µM; against PKC theta it was 53.5 µM; on PKC zeta, > 100 µM.

Take `CC(C)(C)C1CCC(C(=O)Nc2ccncc2)CC1` (stereo not shown) [Compound 2, 4-tert-butyl-cyclohexanecarboxylic acid pyridine-4-ylamide]: the half-maximal inhibitory concentration (IC50) at PKC epsilon, on PKC gamma, on PKC theta and on PKC zeta was > 100 µM in each case.

As for `NCc1ccc(S(=O)(=O)Nc2ccncc2)cc1` [Compound 10, 4-aminomethyl-N-pyridin-4-yl-benzenesulfonamide], the IC50 against PKC epsilon, against PKC gamma, against PKC theta and against PKC zeta was > 100 µM throughout.

Consider `CC(N)c1ccc(C(=O)Nc2ccnc3[nH]ccc23)s1` (stereo not shown) [Compound 40, 5-(1-amino-ethyl)-thiophene-2-carboxylic acid N-(1H-pyrrolo[2,3pyridinedin-4-yl)-benzamidedihydrochloric acid salt], for which the IC50 against PKC epsilon is 3.9 µM; at PKC theta it was 3.2 µM; at PKC zeta it was > 100 µM.
